Experimental data from US20100261639A1, “TRIAZOLE-BASED AMINOGLYCOSIDE-PEPTIDE CONJUGATES AND METHODS OF USE” (UNIVERSITY OF MANITOBA, priority 2007, published 2010).
Values after ≈ are worked out from the molar mass of the structure shown.

Tested on: S. aureus ATCC 29213
Assay: MIC, macrobroth dilution, S. aureus ATCC 29213
Type: cell-based, Staphylococcus aureus
Settings: visible growth after 24 h at 37° C.
Description: The microbiological activities of the neomycin-peptide conjugates and kanamycin-peptide conjugates against both American Type Culture Collection (ATCC) reference and clinical strains of Staphylococcus aureus, MRSA, Staphylococcus epidermidis, MRSE, Enterococcus faecalis, Enterococcus faecium, Streptococcus pneumoniae, E. coli, Pseudomonas aeruginosa, Stenotrophomonas maltophilia, Acinetobacter baumannii, and Klebsiella pneumoniae were assessed. Special focus was given to assess activity against multi-drug resistant strains of these pathogens. Antibiotic susceptibility testing was performed using the macrobroth dilution method as per Clinical Laboratory Standards Institute-CLSI (formerly National Committee for Clinical and Laboratory Standards-NCCLS) (Clinical and Laboratory Standards Institute, 2006). MIC values defined as the lowest concentration of antimicrobial agent which inhibited the development of visible growth after 24 h at 37° C.

With `NC[C@@H]1O[C@H](O[C@H]2[C@@H](O)[C@H](O[C@@H]3[C@@H](O)[C@H](N)C[C@H](N)[C@H]3O[C@H]3O[C@H](CN)[C@@H](O)[C@H](O)[C@H]3N)O[C@@H]2CO)[C@H](N)[C@@H](O)[C@@H]1O` [Neomycin B, neomycin B] the “minimal inhibitory concentration (MIC)” value was 2 µg/mL (≈ 3.25 µM).
